# Tests used:
# [1] = Partition into lipid bilayer vesicles (fluorescence titration); type: physicochemical; conditions: mammal-mimetic lipid bilayer vesicle; numerical treatment of fluorescence titration
# Excerpt: We performed biophysical studies using fluorescent methodologies in order to characterize the interaction of KTP-NH2 with liposomes representing human cell membranes (Santos N. C., Prieto M. and Castanho M. A. 2003. Quantifying molecular partition into model systems of biomembranes: an emphasis on optical spectroscopic methods. Biochim Biophys Acta 1612: 123-135.). A clear interaction of KTP-NH2 with the lipid bilayers was observed. […] When titrated with a mammal-mimetic lipid bilayer vesicle (circles), the fluorescence intensity of the phenolic moiety increases due to insertion in the apolar environment created by the lipids. The POPC system mimetizes the external layer of human cell membranes, whereas POPG lipidic mixture mimetizes the internal layer of human cell membranes.
# In order to confirm that these plasma-stable KTP-NH2 derivatives maintained their lipophilicity, their potential interaction with human cell membranes was assessed. Again, we performed biophysical studies using fluorescent methodologies (Santos N. C., Prieto M. and Castanho M. A. 2003. Quantifying molecular partition into model systems of biomembranes: an emphasis on optical spectroscopic methods. Biochim Biophys Acta 1612: 123-135.).
# [2] = Differential quenching, depth of location in the membrane; type: physicochemical; conditions: phenolic ring; differential quenching with 5-NS and 16-NS
# Excerpt: Differential quenching experiments were used to estimate the depth of location of the phenolic ring of the peptides, based on a Brownian dynamics simulation (Fernandes M. X., Garcia de la Torre J., Castanho M. A. 2002. Joint determination by Brownian dynamics and fluorescence quenching of the in-depth location profile of biomolecules in membranes. Anal. Biochem. 307: 1-12.) This methodology allows to determine where the molecules are preferably inserted along the lipid bilayer. The peptides with the amide group show a greater depth of insertion, 4 Å—KTP-NH2 and 3 Å—Ibu-KTP-NH2, from the lipid/water interface. This is in agreement with KTP-NH2 having a higher affinity for lipids, as desired.
# [3] = Acrylamide quenching studies (aggregation in aqueous medium); type: physicochemical; conditions: acrylamide quenching of tyrosine fluorescence
# Method: The aggregation of molecules in aqueous medium, as a result of poor solubility, for example, is a critical parameter in pharmacology. […] For this purpose, acrylamide quenching studies were performed (Lakowicz J. R 1999. Principles of Fluorescence spectroscopy, Second Edition ed., Kluwer Academic/Plenum Publishers, New York; Coutinho A and Prieto M. 1993. Ribonuclease T1 and alcohol dehydrogenase fluorescence quenching by acrylamide: A laboratory experiment for undergraduate students J. Chem. Education, 70: 425-428). Acrylamide is an aqueous quencher of tyrosine fluorescence. When fluorescent peptides aggregate, the phenolic groups tend to cluster and remain inaccessible to hydrophilic molecules. Conversely, when no aggregation occurs, all tyrosine residues are exposed to the solvent and, therefore, accessible to the contact and quenching by acrilamide. […] The fluorescence spectra were not concentration-dependent (not shown) and there was a linear dependence of fluorescence intensity on concentration (not shown).
# rats (Wister, male) [4] = assay: Tail Flick test; type: in vivo, rat
# Method: In vivo behavioural anti-nociception tests were carried out in rats (Wister, male). Unless otherwise stated, compounds were administered by intra-peritoneal (i.p.) injection. For most assays, the Tail Flick and the Hot Plate tests were used.
# The tail-flick test (D'Amour F. E., Smith D. L. 1941. A method for determining the loss of pain sensation. J Pharmacol Exp Ther 1941; 72:74-79) is a standard investigative tool for pain and analgesia assessment in rodents. It is based on a spinal reflex response of the tail to radiant heat. Pain sensitivity in rats was measured as they responded to the application of radiant heat to a small area of their tails. The rat's tail was placed over a window located on a platform and subjected to irradiation by an intense light beam (10 W). When the rat feels discomfort, it flicks its tail which automatically stops the timer. The reaction time from activation of the light beam to the tail flick is automatically presented on a digital display. A cut-off time of 24 s was applied. Animal reaction time is a measurement of animal resistance to pain and is used to measure efficacy of analgesics.
# c-fos = assay: Formalin-induced c-fos expression in spinal cord dorsal horn (immunohistochemistry); type: in vivo, rat; conditions: formalin-treated rats
# rats (Wister, male) [5] = assay: Hepatotoxicity markers in plasma; type: in vivo, rat
# Method: (§1) The toxicological studies were carried out with rats (Wister, male) injected i.p. once a day with 3.23 mg/100 g body mass during seven days.
# Liver is the major organ of toxicity. Blood samples were collected and the following hepatotoxicity markers were assayed in the plasma: • Alanine transaminase (ALT), • Aspartate transaminase (AST) • Alkaline phosphatase (ALP) • Total bilirubin (TBILI) • Gamma glutamyl transpeptidase (GGT)
# Increased levels of the liver enzymes ALT, AST, ALP and GGT in the plasma would indicate lesions in liver. Increased RBL would be a sign of faulty bilirubin production/hemolysis and/or bilirubin metabolism (in liver).
# rats (Wister, male) [6] = assay: Antioxidant capacity in plasma (ACW, ACL); type: in vivo, rat; conditions: i.p. once a day 3.23 mg/100 g for seven days
# Method: as §1
# Metabolization of KTP-NH2 in the organism might lead to an increase in its metabolite products and to the subsequent production of reactive oxygen species (ROS). As increased ROS levels are potentially harmful, KTP-NH2 potential to induce changes in antioxidant capacities in the plasma of animals was explored. Total antioxidant capacity of lipid-soluble (ACL) and water-soluble (ACW) constituents were determined.
# CYP3A4 = CYP3A4 (Homo sapiens, UniProt P08684); assay: CYP inhibition; type: in vitro ADME; conditions: probe substrates midazolan and testosterone
# Excerpt: CYP3A4 is one of the most important enzymes involved in the metabolism of xenobiotics in the body, promoting the oxidation of the largest range of substrates of all the CYPs and is present in the largest quantity of all the CYPs in the liver.
# [7] = Cytotoxicity (LDH release and ATP); type: cell-based; conditions: human hepatocytes; LDH and ATP determination; read-out: LC50 (the source's name)
# Method: Cytotoxicity was assessed with a cell-based assay using human hepatocytes. Cell death was assayed by quantifying plasma membrane damage or rupture through measurement of the release of lactate dehydrogenase (LDH) (Legrand, C. et al. 1992. Lactate dehydrogenase (LDH) activity of the cultured eukaryotic cells as marker of the number of dead cells in the medium. J. Biotechnol. 25: 231-243), a stable cytoplasmic enzyme present in most cells. Determination of cell viability was performed by quantifying ATP (Cree I. A and Andreotti P. E. 1997. Measurement of cytotoxicity by ATP-based luminescence assay in primary cell cultures and cell lines. Toxicology in vitro, 11: 553-556), a marker for cell viability because it is present in all metabolically active cells and the concentration declines very rapidly when the cells undergo necrosis or apoptosis.
# CYP3A4, sequence (P08684 whole entry): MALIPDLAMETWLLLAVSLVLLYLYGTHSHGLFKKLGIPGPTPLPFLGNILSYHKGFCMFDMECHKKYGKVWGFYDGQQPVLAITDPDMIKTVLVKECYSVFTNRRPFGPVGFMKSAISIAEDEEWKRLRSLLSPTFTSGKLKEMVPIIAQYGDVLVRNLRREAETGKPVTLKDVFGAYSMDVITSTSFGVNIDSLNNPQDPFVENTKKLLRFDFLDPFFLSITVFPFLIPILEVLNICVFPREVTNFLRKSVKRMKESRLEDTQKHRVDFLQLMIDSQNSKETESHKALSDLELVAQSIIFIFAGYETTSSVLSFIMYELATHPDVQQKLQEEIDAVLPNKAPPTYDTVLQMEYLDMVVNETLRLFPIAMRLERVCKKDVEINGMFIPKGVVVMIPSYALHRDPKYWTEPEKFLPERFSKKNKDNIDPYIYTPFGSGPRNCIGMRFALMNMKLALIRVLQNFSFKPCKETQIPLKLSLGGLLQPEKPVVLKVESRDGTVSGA
smiles,measurement,setting,value
"N=C(N)NCCC[C@H](NC(=O)[C@@H](N)Cc1ccc(O)cc1)C(N)=O [KTP-NH2, L-Tyr-L-Arg-NH2]",local concentration in the model membrane of mammals relative to surrounding bulk aqueous phase,[1],approx. 2500 fold
same,depth of insertion from the lipid/water interface,[2],4 Å
same,aggregation / solubility in aqueous medium,[3],favourable solubility properties
same,response after chronic administration,"rats (Wister, male) [4]; Tail Flick, 3.23 mg/100 g once a day for seven days vs single injection",very similar profile to the control
same,analgesic effect compared with ibuprofen,"rats (Wister, male) [4]; Tail Flick, i.p.",more durable effect
same,duration of anti-nociceptive response,"rats (Wister, male) [4]; Tail Flick, i.p., rat",45 min
same,smallest dose tested with statistical significance,"rats (Wister, male) [4]; Tail Flick, i.p., rat",2.45 mg for 100 g of body mass
same,analgesic efficacy after oral administration,"rats (Wister, male) [4]; Tail Flick, oral, rat",slight delay of the onset of effect
same,effect on tail flick latency,"rats (Wister, male) [4]; i.p., rat",clear anti-nociceptive response
same,analgesia after pretreatment with naloxone,"rats (Wister, male) [4]; tail-flick, naloxone 0.5 mg/100 g 10 min before, KTP-NH2 3 mg/100 g",completely antagonized
same,formalin-induced c-fos protein expression in dorsal horn,c-fos,significantly decreased
same,GGT in plasma,"rats (Wister, male) [5]; i.p. once a day 3.23 mg/100 g for seven days","trace amounts, below the detection limit"
same,"hepatotoxicity markers AST, ALT, ALP, total bilirubin in plasma","rats (Wister, male) [5]; i.p. once a day 3.23 mg/100 g for seven days vs control",no toxic effects were detected
same,"basal antioxidant capacity in plasma (ACL, ACW)","rats (Wister, male) [6]",does not induce significant modifications
same,CYP3A4 inhibition,CYP3A4,not to inhibit
same,CC50,[7],> 125 µM
